Source: US20070203325A1, “Integrase-dirived HIV-inhibiting agents” (priority 2006, published 2007)

Legend:
[1] = system: HIV-1 NL4.3-Nef+/GFP+; test: Infection of MT4 cells by virus from producer cells expressing the IN C-terminal domain, GFP-positive cell count; format: cell-based; conditions: viruses produced by 293T cells expressing the protein, 48 h post-infection
[2] = system: HIV-1 NL4.3-Nef+/GFP+; test: Infection of HeLa-β-Gal-CD4/CCR5 cells by virus from producer cells expressing the IN C-terminal domain, MAGI assay; format: cell-based; conditions: viruses produced by 293T cells expressing the protein, 48 h post-infection

IN C-terminal domain: T7-tagged HIV-1 integrase C-terminal domain 205-288 (SEQ ID NO:2) expressed in viral producer cells
virus infection of MT4 cells [1]: significantly impaired
virus infection of HeLa-β-Gal-CD4/CCR5 cells [2]: significantly impaired
